This data set is described as follows: activity coefficient (dimensionless); of the first substance listed, at infinite dilution; xn = mol fraction of the nth substance listed. The following applies: 101.33 kPa, Liquid, Chromatography, x1 = 0.

Numbers after ± are expanded uncertainties.

Regarding `Cc1ccccc1C` [1,2-dimethylbenzene] + CC[N+](C)(CC)CCOC.O=S(=O)([N-]S(=O)(=O)C(F)(F)F)C(F)(F)F, the activity coefficient by setting is: (318.15 K) 1.93 ± 0.17; (328.15 K) 1.94 ± 0.17; (338.15 K) 1.95 ± 0.17; (348.15 K) 1.96 ± 0.17; (358.15 K) 1.97 ± 0.17.
The like results for `Cc1cccc(C)c1` [1,3-dimethylbenzene] + CC[N+](C)(CC)CCOC.O=S(=O)([N-]S(=O)(=O)C(F)(F)F)C(F)(F)F were, in that order, 2.12 ± 0.18, 2.14 ± 0.18, 2.14 ± 0.18, 2.17 ± 0.19 and 2.18 ± 0.19.
On the same counts, the results for `Cc1ccc(C)cc1` [1,4-dimethylbenzene] + CC[N+](C)(CC)CCOC.O=S(=O)([N-]S(=O)(=O)C(F)(F)F)C(F)(F)F are 2.12 ± 0.18, 2.15 ± 0.19, 2.15 ± 0.19, 2.17 ± 0.19 and 2.18 ± 0.19.
The like results for `C1COCCO1` [1,4-dioxane] + CC[N+](C)(CC)CCOC.O=S(=O)([N-]S(=O)(=O)C(F)(F)F)C(F)(F)F were, in that order, 0.66 ± 0.057, 0.679 ± 0.058, 0.704 ± 0.06, 0.723 ± 0.061 and 0.734 ± 0.062.
Consider `C=CCCCCCCCC` [1-decene] + CC[N+](C)(CC)CCOC.O=S(=O)([N-]S(=O)(=O)C(F)(F)F)C(F)(F)F, for which the activity coefficient worked out at 40.4 ± 3.5 (318.15 K); 37.4 ± 3.2 (328.15 K); 34.4 ± 3 (338.15 K); 32.2 ± 2.8 (348.15 K); 29.8 ± 2.6 (358.15 K).
Take `C=CCCCCC` [1-heptene] + CC[N+](C)(CC)CCOC.O=S(=O)([N-]S(=O)(=O)C(F)(F)F)C(F)(F)F: the activity coefficient amounted to 13.3 ± 1.2 (318.15 K); 12.6 ± 1.1 (328.15 K); 11.9 ± 1 (338.15 K); 11.4 ± 1 (348.15 K); 10.9 ± 0.9 (358.15 K).
The like results for `C#CCCCCC` [1-heptyne] + CC[N+](C)(CC)CCOC.O=S(=O)([N-]S(=O)(=O)C(F)(F)F)C(F)(F)F were, in that order, 4.47 ± 0.39, 4.43 ± 0.38, 4.39 ± 0.38, 4.35 ± 0.38 and 4.29 ± 0.37.
On the same counts, the results for `C#CCCCC` [1-hexyne] + CC[N+](C)(CC)CCOC.O=S(=O)([N-]S(=O)(=O)C(F)(F)F)C(F)(F)F are 3.11 ± 0.27, 3.11 ± 0.27, 3.1 ± 0.27, 3.1 ± 0.27 and 3.08 ± 0.27.
As to `CCC[N+](=O)[O-]` [1-nitropropane] + CC[N+](C)(CC)CCOC.O=S(=O)([N-]S(=O)(=O)C(F)(F)F)C(F)(F)F, the activity coefficient is, setting by setting: (318.15 K) 0.78 ± 0.066; (328.15 K) 0.778 ± 0.065; (338.15 K) 0.775 ± 0.065; (348.15 K) 0.772 ± 0.065; (358.15 K) 0.77 ± 0.065.
`C#CCCCCCC` [1-octyne] + CC[N+](C)(CC)CCOC.O=S(=O)([N-]S(=O)(=O)C(F)(F)F)C(F)(F)F: the activity coefficient reads like this: (318.15 K) 6.47 ± 0.56; (328.15 K) 6.36 ± 0.55; (338.15 K) 6.21 ± 0.54; (348.15 K) 6.11 ± 0.53; (358.15 K) 5.97 ± 0.52.
On the same counts, the results for `C#CCCC` [1-pentyne] + CC[N+](C)(CC)CCOC.O=S(=O)([N-]S(=O)(=O)C(F)(F)F)C(F)(F)F are 2.15 ± 0.19, 2.17 ± 0.19, 2.18 ± 0.19, 2.19 ± 0.19 and 2.21 ± 0.19.
The like results for `CC(C)CC(C)(C)C` [2,2,4-trimethylpentane] + CC[N+](C)(CC)CCOC.O=S(=O)([N-]S(=O)(=O)C(F)(F)F)C(F)(F)F were, in that order, 25.7 ± 2.2, 23.8 ± 2.1, 21.7 ± 1.9, 21 ± 1.8 and 20 ± 1.7.
The like results for `CCC(C)(C)C` [2,2-dimethylbutane] + CC[N+](C)(CC)CCOC.O=S(=O)([N-]S(=O)(=O)C(F)(F)F)C(F)(F)F were, in that order, 15.1 ± 1.3, 14 ± 1.2, 13.3 ± 1.2, 12.5 ± 1.1 and 11.9 ± 1.
As to `CCOC(C)(C)C` [2-ethoxy-2-methylpropane] + CC[N+](C)(CC)CCOC.O=S(=O)([N-]S(=O)(=O)C(F)(F)F)C(F)(F)F, the activity coefficient runs as follows: (318.15 K) 6.09 ± 0.53; (328.15 K) 5.94 ± 0.51; (338.15 K) 5.86 ± 0.51; (348.15 K) 5.71 ± 0.49; (358.15 K) 5.59 ± 0.48.
`CCCCC(C)=O` [2-hexanone] + CC[N+](C)(CC)CCOC.O=S(=O)([N-]S(=O)(=O)C(F)(F)F)C(F)(F)F: the activity coefficient (318.15 K) turned out to be 1.14 ± 0.09; the activity coefficient (328.15 K) is 1.15 ± 0.1; the activity coefficient (338.15 K) turned out to be 1.16 ± 0.1; the activity coefficient (348.15 K) was 1.18 ± 0.1; the activity coefficient (358.15 K) amounted to 1.19 ± 0.1.
On the same counts, the results for `CCC(C)(C)OC` [2-methoxy-2-methylbutane] + CC[N+](C)(CC)CCOC.O=S(=O)([N-]S(=O)(=O)C(F)(F)F)C(F)(F)F are 3.87 ± 0.33, 3.86 ± 0.33, 3.83 ± 0.33, 3.8 ± 0.33 and 3.76 ± 0.32.
On the same counts, the results for `COC(C)(C)C` [2-methoxy-2-methylpropane] + CC[N+](C)(CC)CCOC.O=S(=O)([N-]S(=O)(=O)C(F)(F)F)C(F)(F)F are 2.62 ± 0.23, 2.63 ± 0.23, 2.65 ± 0.23, 2.67 ± 0.23 and 2.67 ± 0.23.
On the same counts, the results for `CCCC(=O)CC` [3-hexanone] + CC[N+](C)(CC)CCOC.O=S(=O)([N-]S(=O)(=O)C(F)(F)F)C(F)(F)F are 1.21 ± 0.1, 1.22 ± 0.1, 1.23 ± 0.1, 1.24 ± 0.1 and 1.25 ± 0.1.
As for `CCC(C)CC` [3-methylpentane] + CC[N+](C)(CC)CCOC.O=S(=O)([N-]S(=O)(=O)C(F)(F)F)C(F)(F)F, the activity coefficient was 16.1 ± 1.4 (318.15 K); 14.9 ± 1.3 (328.15 K); 14 ± 1.2 (338.15 K); 13.1 ± 1.1 (348.15 K); 12.5 ± 1.1 (358.15 K).
The like results for `CC(C)=O` [acetone] + CC[N+](C)(CC)CCOC.O=S(=O)([N-]S(=O)(=O)C(F)(F)F)C(F)(F)F were, in that order, 0.484 ± 0.045, 0.491 ± 0.046, 0.499 ± 0.046, 0.509 ± 0.047 and 0.518 ± 0.047.
As for `CC#N` [acetonitrile] + CC[N+](C)(CC)CCOC.O=S(=O)([N-]S(=O)(=O)C(F)(F)F)C(F)(F)F, the activity coefficient was found to be 0.488 ± 0.045 (318.15 K); 0.488 ± 0.045 (328.15 K); 0.488 ± 0.045 (338.15 K); 0.49 ± 0.045 (348.15 K); 0.49 ± 0.045 (358.15 K).
Regarding `c1ccccc1` [benzene] + CC[N+](C)(CC)CCOC.O=S(=O)([N-]S(=O)(=O)C(F)(F)F)C(F)(F)F, the activity coefficient reads like this: (318.15 K) 1.03 ± 0.08; (328.15 K) 1.04 ± 0.09; (338.15 K) 1.05 ± 0.09; (348.15 K) 1.07 ± 0.09; (358.15 K) 1.07 ± 0.09.
In the case of `CCCCO` [butan-1-ol] + CC[N+](C)(CC)CCOC.O=S(=O)([N-]S(=O)(=O)C(F)(F)F)C(F)(F)F, the activity coefficient is 2.96 ± 0.26 (318.15 K); 2.63 ± 0.23 (328.15 K); 2.39 ± 0.21 (338.15 K); 2.18 ± 0.19 (348.15 K); 2 ± 0.17 (358.15 K).
On the same counts, the results for `C1CCCCCC1` [cycloheptane] + CC[N+](C)(CC)CCOC.O=S(=O)([N-]S(=O)(=O)C(F)(F)F)C(F)(F)F are 14.9 ± 1.3, 13.7 ± 1.2, 12.7 ± 1.1, 11.8 ± 1 and 11 ± 1.
Turning to `C1CCCCC1` [cyclohexane] + CC[N+](C)(CC)CCOC.O=S(=O)([N-]S(=O)(=O)C(F)(F)F)C(F)(F)F, the activity coefficient is, setting by setting: (318.15 K) 10.8 ± 0.9; (328.15 K) 10 ± 0.9; (338.15 K) 9.39 ± 0.81; (348.15 K) 8.74 ± 0.75; (358.15 K) 8.3 ± 0.72.
The like results for `C1=CCCCC1` [cyclohexene] + CC[N+](C)(CC)CCOC.O=S(=O)([N-]S(=O)(=O)C(F)(F)F)C(F)(F)F were, in that order, 5.83 ± 0.5, 5.56 ± 0.48, 5.33 ± 0.46, 5.16 ± 0.45 and 4.93 ± 0.43.
On the same counts, the results for `C1CCCCCCC1` [cyclooctane] + CC[N+](C)(CC)CCOC.O=S(=O)([N-]S(=O)(=O)C(F)(F)F)C(F)(F)F are 20.4 ± 1.8, 18.6 ± 1.6, 17 ± 1.5, 15.7 ± 1.4 and 14.5 ± 1.3.
On the same counts, the results for `C1CCCC1` [cyclopentane] + CC[N+](C)(CC)CCOC.O=S(=O)([N-]S(=O)(=O)C(F)(F)F)C(F)(F)F are 7.28 ± 0.63, 6.85 ± 0.59, 6.47 ± 0.56, 6.12 ± 0.53 and 5.79 ± 0.5.
